Measurements from patent publication US12318373B2, “Methods of treating gastrointestinal stromal tumors” (Deciphera Pharmaceuticals, LLC, priority 2019, dated 2025).

How the values were obtained:
[1] = system: GIST with KIT exon 11 primary mutations; conditions: cited from earlier work
[2] = Example 8: coadministration with proton-pump inhibitor (pantoprazole), exposure; type: in vivo; conditions: ripretinib coadministered with pantoprazole
Experimental: The effect of a proton-pump inhibitor on the exposure of ripretinib was evaluated.

[3] = Example 7: coadministration with strong CYP3A inhibitor (itraconazole), exposure; type: in vivo; conditions: coadministration of ripretinib with itraconazole
[4] = Example 9: food effect (high-fat meal) on exposure; type: in vivo; conditions: 150 mg dose with a high-fat meal
Experimental: The effect of a high-fat breakfast on ripretinib and Compound A exposure was evaluated. A high fat meal consisted of approximately 150, 250, and 500-600 calories from protein, carbohydrate, and fat, respectively. […] Therefore, ripretinib may be taken with or without food at approximately same time each day.

SMILES | 2-year relapse-free survival ([1]; adjuvant setting) | Median event-free survival ([1]; metastatic setting) | Difference in plasma exposure [2] | Increase in AUC0-inf [3] | Increase in Cmax [3] | AUC0-24h higher by [4] | Cmax higher by [4]
Cc1ccc(NC(=O)c2ccc(CN3CCN(C)CC3)cc2)cc1Nc1nccc(-c2cccnc2)n1 [imatinib] | ~90% | under 2 years | – | – | – | – | –
CCn1c(=O)c(-c2cc(NC(=O)Nc3ccccc3)c(F)cc2Br)cc2cnc(N)cc21 [Compound A] | – | – | No clinically significant differences | 99% | no change | 47% | 66%
